Data from article PMC4822888, “Subtype-Selective Small Molecule Inhibitors Reveal a Fundamental Role for Nav1.7 in Nociceptor Electrogenesis, Axonal Conduction and Presynaptic Release” (PLoS ONE, 2016).
Read-outs that look alike come from different tables or passages of the source.

Assays:
[1] = test system: synaptosomes prepared from L4/L5 spinal cord sections; set-up: species or system mouse
Description: A lumbosacral laminectomy was performed and a segment of lumbar spinal cord was removed into a petri dish containing ice-cold pre-oxygenated aCSF. The dura mater, ventral and dorsal roots and the pia-arachnoid membrane were removed. A small segment of the spinal cord containing only the lumbar region (L4–L5) was dissected free, weighed and placed into ice-cold homogenization buffer composition (mM) 0.32 M sucrose, 10 mM HEPES (pH 7.4, bubbled with 100% O2). Spinal cord tissue was homogenized in buffer using 20 strokes of a glass/glass hand homogenizer. The crude homogenate was diluted with 3 mL of ice-cold homogenization buffer and centrifuged at 1000 x g for 5 mins at 4°C. Synaptosomes were isolated from the supernatant by an additional centrifugation at 20,000 x g for 2 mins at 4°C. The synaptosomal pellet was resuspended in 3 mL of Krebs buffer with composition (in mM): NaCl 118, KCl 2.4, CaCl2 2.4, MgSO4 1.2, KH2PO4 1.2, NaHCO3 25, glucose 10, pH 7.4 (bubbled with 95% O2 and 5% CO2). Protein quantification was performed on the synaptosomal solution using the Bradford colorimetric protein assay and bovine serum albumin standards. Samples were diluted to obtain a final concentration of 0.1 mg mL^-1 for CGRP evaluation and 100 μL samples of the synaptosomal solution was pipetted into eppendorfs. Synaptosomes were incubated at 37°C for 10 mins in the presence of test compounds or DMSO (1 μl total volume). Synaptosomes were stimulated using Veratridine 10 μM in the presence of Thiorphan (10 μM) and incubated for a further 10 mins at 37°C. Samples were then filtered using […] filters and 100 μl of the filtrate was transferred to CGRP ELISA plate (Bertin Pharma) and assayed according to the manufactures instructions.

[2] = test system: substantia gelatinosa (SG) neurons of the superficial dorsal horn
[3] = test system: substantia gelatinosa (SG) neurons; assay: Current clamp action potentials in SG neurons of mouse spinal cord slices; type: cell-based; settings: 30 nM
[4] = test system: small diameter mouse DRG neurons; type: cell-based
mouse Nav1.7 = mouse Nav1.7 (Mus musculus, UniProt Q62205); type: cell-based
mouse Nav1.7, sequence (Q62205 whole entry): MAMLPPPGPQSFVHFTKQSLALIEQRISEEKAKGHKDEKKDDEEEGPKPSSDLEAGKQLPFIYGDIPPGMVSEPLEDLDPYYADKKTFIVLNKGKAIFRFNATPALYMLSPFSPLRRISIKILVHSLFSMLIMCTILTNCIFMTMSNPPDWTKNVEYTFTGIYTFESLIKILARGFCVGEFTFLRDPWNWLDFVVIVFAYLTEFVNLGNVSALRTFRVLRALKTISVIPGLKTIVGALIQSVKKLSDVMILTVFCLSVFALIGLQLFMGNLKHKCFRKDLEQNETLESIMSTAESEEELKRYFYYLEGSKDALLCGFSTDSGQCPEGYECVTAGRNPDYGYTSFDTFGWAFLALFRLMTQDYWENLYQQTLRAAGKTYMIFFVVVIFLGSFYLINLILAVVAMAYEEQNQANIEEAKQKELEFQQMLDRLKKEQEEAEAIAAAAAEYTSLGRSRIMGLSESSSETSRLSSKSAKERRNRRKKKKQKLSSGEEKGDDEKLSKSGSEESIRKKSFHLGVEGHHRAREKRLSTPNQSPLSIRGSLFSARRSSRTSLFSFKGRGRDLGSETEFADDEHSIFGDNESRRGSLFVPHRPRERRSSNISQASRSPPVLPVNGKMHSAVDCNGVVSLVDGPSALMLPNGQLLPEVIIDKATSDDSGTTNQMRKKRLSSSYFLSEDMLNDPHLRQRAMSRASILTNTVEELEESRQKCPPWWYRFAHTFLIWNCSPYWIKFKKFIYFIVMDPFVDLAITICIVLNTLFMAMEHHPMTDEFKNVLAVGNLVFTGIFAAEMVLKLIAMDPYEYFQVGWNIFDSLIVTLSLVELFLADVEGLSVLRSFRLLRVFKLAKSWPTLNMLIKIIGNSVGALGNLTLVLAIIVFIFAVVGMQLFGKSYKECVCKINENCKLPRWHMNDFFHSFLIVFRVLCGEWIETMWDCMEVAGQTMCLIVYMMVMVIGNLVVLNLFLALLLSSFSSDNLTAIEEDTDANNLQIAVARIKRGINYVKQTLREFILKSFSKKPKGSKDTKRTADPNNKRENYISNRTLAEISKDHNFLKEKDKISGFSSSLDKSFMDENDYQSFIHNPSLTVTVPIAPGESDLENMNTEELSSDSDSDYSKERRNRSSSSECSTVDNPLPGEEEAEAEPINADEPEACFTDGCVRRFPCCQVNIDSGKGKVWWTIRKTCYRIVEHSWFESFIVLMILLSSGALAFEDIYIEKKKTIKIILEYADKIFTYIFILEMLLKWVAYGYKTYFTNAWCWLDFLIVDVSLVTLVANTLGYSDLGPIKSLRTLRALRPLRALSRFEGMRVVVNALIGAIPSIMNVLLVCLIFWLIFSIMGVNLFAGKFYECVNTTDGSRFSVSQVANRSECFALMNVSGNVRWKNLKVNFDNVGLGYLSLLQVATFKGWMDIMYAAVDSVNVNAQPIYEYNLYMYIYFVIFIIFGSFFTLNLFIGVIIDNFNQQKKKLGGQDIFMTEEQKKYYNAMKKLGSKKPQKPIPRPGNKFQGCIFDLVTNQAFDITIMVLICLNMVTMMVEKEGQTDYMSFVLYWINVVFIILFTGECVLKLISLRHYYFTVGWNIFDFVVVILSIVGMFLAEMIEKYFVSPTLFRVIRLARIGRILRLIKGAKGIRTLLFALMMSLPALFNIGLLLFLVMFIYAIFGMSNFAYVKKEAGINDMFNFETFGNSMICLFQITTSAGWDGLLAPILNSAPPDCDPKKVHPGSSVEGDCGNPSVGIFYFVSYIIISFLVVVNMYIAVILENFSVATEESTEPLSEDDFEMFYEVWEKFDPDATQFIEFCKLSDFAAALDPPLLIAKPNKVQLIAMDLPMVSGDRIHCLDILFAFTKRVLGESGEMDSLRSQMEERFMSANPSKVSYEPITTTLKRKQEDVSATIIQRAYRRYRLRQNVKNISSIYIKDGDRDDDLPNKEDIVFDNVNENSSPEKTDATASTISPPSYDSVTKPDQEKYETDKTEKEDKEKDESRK

mouse Nav1.1 = mouse Nav1.1 (Mus musculus, UniProt A2APX8); type: cell-based; settings: recombinant mouse Nav1.1
[5] = test system: small diameter mouse DRG neurons; assay: Current clamp of action potentials in small diameter mDRG neurons; type: cell-based
Description: Dorsal root ganglia (DRG) were isolated and dissociated according to a previously published method. Briefly, DRGs were obtained from all spinal locations and dissociated neurons plated on glass coverslips pre-coated with poly-D-lysine/laminin (BD Biosciences) and left to adhere for 1.5–2 hrs before flooding. Growth media consisted of Lebovitz L-15 Glutamax (Life Technologies) supplemented with 10% FCS, 24 mM NaHCO3 and 38 mM glucose.
Electrophysiological recordings were obtained from stably transfected HEK 293 cells, acutely dissociated mouse DRG neurons, cultured human DRG neurons or mouse superficial dorsal horn neurons using either an Axopatch 200B or […] amplifier (Molecular Devices), or EPC-10 USB amplifier (HEKA). Small diameter mouse DRG neurons were identified as those with a whole cell capacitance between 10–25 pF [17]. For human DRG neurons, patch clamp recordings were obtained from small-to-medium diameter neurons (<60 μm), the majority of which have previously been classified as nociceptors.
ECS contained (in mM) 135 NaCl, 4.7 KCl, 1 CaCl2, 1 MgCl2, 10 HEPES and 10 glucose (300–310 mOsm, pH 7.4 with NaOH). ICS contained (in mM) 140 KCl, 0.5 EGTA, 5 HEPES, and 3 Mg-ATP, (pH 7.3 with KOH, 300–305 mOsm). Single action potentials were evoked from Vm -70 mV by a 20 ms suprathreshold current step (0.1 Hz).

[6] = test system: substantia gelatinosa (SG) neurons of the superficial dorsal horn; assay: cells; settings: Mus musculus, Neuron
WT mice = assay: Capsaicin flare response in WT mice; type: in vivo, mouse; settings: 55 mins, vehicle 4930 ± 751
mDRG neurons = assay: Action potential voltage clamp in mDRG neurons; type: cell-based, mouse; settings: 30 nM, p < 0.05
Description: Recordings were performed as described in Blair & Bean (2002). Briefly, the internal solution contained (in mM): 140 K-Mes, 13.5 NaCl, 1.6 MgCl2, 0.09 EGTA, 9 HEPES, 0.9 glucose, 14 Tris-creatine PO4, 4 Mg-ATP, and 0.3 Tris-GTP (285–300 mOsm, pH 7.2 with KOH). The ECS was identical to that used for current clamp recordings (see above). Action potentials were recorded in current clamp mode following a 20 ms current injection from a Vm of -70 mV. The same cell was then examined under voltage-clamp (-70 mV) whereby the recorded action potential was used as the voltage command. Series resistance was compensated for by up to 80%.

Cc1cccc(C)c1OCC(C)N (centres unmarked) [mexiletine, reference compound]
Veratridine evoked CGRP release [1]: significantly reduced

NS(=O)(=O)c1cccc2c1c([N+](=O)[O-])cc1nc(O)c(O)nc12 [NBQX]
Effect on Aδ and C fiber EPSCs ([2]; 5 μM, data not shown): completely abolished

Nc1n[nH]cc1-c1cc(C(F)(F)F)ccc1Oc1cc(F)c(S(=O)(=O)Nc2cscn2)cc1Cl [PF-05198007, 4-(2-(3-amino-1H-pyrazol-4-yl)-4-(trifluoromethyl)phenoxy)-5-chloro-2-fluoro-N-(thiazol-4-yl)benzenesulfonamide]
Latency of the C-fiber mediated EPSC ([2]; 30 nM applied to the dorsal root only, p < 0.05): delay in the latency | Veratridine evoked CGRP release ([1]; 30 nM, p < 0.05): significantly reduced | Veratridine evoked CGRP release ([1]; 100 nM, p < 0.05): significantly reduced | Effect on action potentials evoked by injection of depolarizing current [3]: no effects | Neurons with dorsal root evoked action potentials abolished [3]: 8 out of 9 | Block of total TTX-S current ([4]; 30 nM, in presence of A-803467): 83.0 ± 2.7% | Slope (mouse Nav1.7): 1.1 | Slope (mouse Nav1.1): 0.7 | Neurons with action potential failure (complete block) ([5]; 30 nM, cells blocked/cells tested): 6/13 | Spike amplitude ([5]; control 43.0 ± 3.3 mV): 37.7 ± 3.9 mV | Upstroke slope ([5]; control 137 ± 19 mV/ms): 86 ± 11 mV/ms | Action potential threshold ([5]; control -27.8 ± 2.0 mV): -22.8 ± 1.6 mV | Action potential rheobase ([5]; in presence of compound, control 173 ± 37 pA): 239 ± 47 pA | Action potential rheobase after washout ([5]; wash, control 173 ± 37 pA): 176 ± 35 pA | inhibition at 0.03 µM ([6]; read-out: Inhibition of Aδ-fiber evoked EPSC amplitude): 46.9 ± 5.4% | inhibition at 0.03 µM ([6]; read-out: Inhibition of C-fiber evoked EPSC amplitude): 53.7 ± 10.1% | inhibition at 0.03 µM ([6]; read-out: Inhibition of C-fiber evoked EPSCs): 87 ± 9% | Capsaicin flare response, AUC (WT mice; 1 mg/kg oral): 1967 ± 472 | Capsaicin flare response, AUC (WT mice; 10 mg/kg oral): 2265 ± 382 | Latency of inward current (mDRG neurons): increased latency | Peak amplitude of inward current (mDRG neurons): decrease in the peak amplitude

COc1cc(NC(=O)c2ccc(-c3ccc(Cl)cc3)o2)cc(OC)c1 [A-803467]
Block of total Na+ current ([4]; 1 μM, small diameter mDRG neurons): 34.1 ± 3.0%

NC1=N[C@H](O)[C@H]2[C@H]3O[C@]4(O)O[C@@H]([C@@H](O)[C@@]2(N1)[C@@H]4O)[C@]3(O)CO [TTX, tetrodotoxin]
Effect on Aδ and C fiber EPSCs [2]: completely abolished | Effect on current remaining after A-803467 [4]: abolished
